According to patent US12692238B2, “Substituted pyridazinone herbicides” (FMC CORPORATION, priority 2020, dated 2026):

Legend:
Assay type in all cases: in vivo
[1] = system: barnyardgrass (Echinochloa crus-galli); experiment: Test A preemergence, barnyardgrass; conditions: 10 days
Excerpt: (§1) Seeds of plant species selected from barnyardgrass (Echinochloa crus-galli), blackgrass (Alopecurus myosuroides), corn (Zea mays), foxtail, giant (giant foxtail, Setaria faberi), foxtail, green (green foxtail, Setaria viridis), goosegrass (Eleusine indica), kochia (Bassia scoparia), oat, wild (wild oat, Avena fatua), palmer amaranth (pigweed, palmer, Amaranthus palmeri), redroot pigweed (Amaranthus retroflexus), ragweed (common ragweed, Ambrosia artemisiifolia), ryegrass, Italian (Italian ryegrass, Lolium multiflorum), and soybean (Glycine max) were planted into a blend of loam soil and sand and treated preemergence with a directed soil spray using test chemicals formulated in a non-phytotoxic solvent mixture which included a surfactant.
(§2) At the same time, plants selected from these crop and weed species and also wheat (Triticum aestivum), galium (catchweed bedstraw, Galium aparine) and horseweed (Erigeron canadensis) were planted in pots containing the same blend of loam soil and sand and treated with postemergence applications of test chemicals formulated in the same manner. Plants ranged in height from 2 to 10 cm and were in the one- to two-leaf stage for the postemergence treatment. Treated plants and untreated controls were maintained in a greenhouse for 10 days, after which time all treated plants were compared to untreated controls and visually evaluated for injury. Plant response ratings, summarized in Table A, are based on a 0 to 100 scale where 0 is no effect and 100 is complete control. A dash (-) response means no test result.

[2] = system: foxtail, giant (giant foxtail, Setaria faberi); experiment: Test A preemergence, foxtail, giant; conditions: 0 to 100 scale, 10 days
Excerpt: as §1, §2

kochia (Bassia scoparia) [3] = experiment: Test A preemergence, kochia; conditions: 0 to 100 scale, 10 days
Excerpt: as §1, §2

[4] = system: redroot pigweed (Amaranthus retroflexus); experiment: Test A preemergence, redroot pigweed; conditions: 0 to 100 scale, 10 days
Excerpt: as §1, §2

[5] = system: ragweed (common ragweed, Ambrosia artemisiifolia); experiment: Test A preemergence, ragweed; conditions: 0 to 100 scale, 10 days
Excerpt: as §1, §2

[6] = system: ryegrass, Italian (Italian ryegrass, Lolium multiflorum); experiment: Test A preemergence, ryegrass, Italian; conditions: 0 to 100 scale, 10 days
Excerpt: as §1, §2

[7] = system: barnyardgrass (Echinochloa crus-galli); experiment: Test A postemergence, barnyardgrass; conditions: 10 days
Excerpt: as §1, §2

[8] = system: blackgrass (Alopecurus myosuroides); experiment: Test A postemergence, blackgrass; conditions: 10 days
Excerpt: as §1, §2

corn (Zea mays) = experiment: Test A postemergence, corn; conditions: 10 days
Excerpt: as §1, §2

[9] = system: foxtail, giant (giant foxtail, Setaria faberi); experiment: Test A postemergence, foxtail, giant; conditions: 10 days
Excerpt: as §1, §2

kochia (Bassia scoparia) [10] = experiment: Test A postemergence, kochia; conditions: 10 days
Excerpt: as §1, §2

[11] = system: redroot pigweed (Amaranthus retroflexus); experiment: Test A postemergence, redroot pigweed; conditions: 10 days
Excerpt: as §1, §2

[12] = system: ragweed (common ragweed, Ambrosia artemisiifolia); experiment: Test A postemergence, ragweed; conditions: 10 days
Excerpt: as §1, §2

[13] = system: ryegrass, Italian (Italian ryegrass, Lolium multiflorum); experiment: Test A postemergence, ryegrass, Italian; conditions: 10 days
Excerpt: as §1, §2

[14] = system: wheat (Triticum aestivum); experiment: Test A postemergence, wheat; conditions: 10 days
Excerpt: as §1, §2

[15] = system: galium (catchweed bedstraw, Galium aparine); experiment: Test A postemergence, galium; conditions: 10 days
Excerpt: as §1, §2

[16] = system: barnyardgrass (Echinochloa crus-galli); experiment: Test B flooded paddy test, barnyardgrass; conditions: 250 g ai/ha, Flood; visually evaluated after 10 to 14 days
Method: (§3) Plant species in the flooded paddy test selected from barnyardgrass (Echinochloa crus-galli), ducksalad (Heteranthera limosa), rice (Oryza sativa), and sedge, umbrella (small-flower umbrella sedge, Cyperus difformis) were grown to the 2-leaf stage for testing. At time of treatment, test pots were flooded to 3 cm above the soil surface, treated by application of test compounds directly to the paddy water, and then maintained at that water depth for the duration of the test. Treated plants and controls were maintained in a greenhouse for 10 to 14 days, after which time all species were compared to controls and visually evaluated. Plant response ratings, summarized in Table B, are based on a scale of 0 to 100 where 0 is no effect and 100 is complete control. A dash (-) response means no test result.

[17] = system: ducksalad (Heteranthera limosa); experiment: Test B flooded paddy test, ducksalad; conditions: 250 g ai/ha, Flood; visually evaluated after 10 to 14 days
Method: as §3

rice (Oryza sativa) = experiment: Test B flooded paddy test, rice; conditions: 250 g ai/ha, Flood; visually evaluated after 10 to 14 days
Method: as §3

[18] = system: sedge, umbrella (small-flower umbrella sedge, Cyperus difformis); experiment: Test B flooded paddy test, sedge, umbrella; conditions: 250 g ai/ha, Flood; visually evaluated after 10 to 14 days
Method: as §3

[19] = 125 g ai/ha, 0 to 100 scale (0 no effect, 100 complete control)
[20] = 31 g ai/ha, postemergence, 0 to 100 scale (0 no effect, 100 complete control)
[21] = Postemergence, 125 g ai/ha, 0 to 100 scale
[22] = Postemergence, 31 g ai/ha, 0 to 100 scale

SMILES | Plant response rating, Barnyardgrass ([1]; 31 g ai/ha, 0 to 100 scale) | Plant response rating, Barnyardgrass [1, 19] | Plant response rating, Foxtail, Giant ([2]; 31 g ai/ha) | Plant response rating, Foxtail, Giant ([2]; 125 g ai/ha) | Plant response rating, Kochia (kochia (Bassia scoparia) [3]; 31 g ai/ha) | Plant response rating, Kochia (kochia (Bassia scoparia) [3]; 125 g ai/ha) | Plant response rating, Pigweed, Redroot ([4]; 31 g ai/ha) | Plant response rating, Pigweed, Redroot ([4]; 125 g ai/ha) | Plant response rating, Ryegrass, Italian ([6]; 31 g ai/ha) | Plant response rating, Ryegrass, Italian ([6]; 125 g ai/ha) | Plant response rating, Barnyardgrass [7, 21] | Plant response rating, Blackgrass [8, 21] | Plant response rating, Corn (corn (Zea mays); [21]) | Plant response rating, Foxtail, Giant [9, 21] | Plant response rating, Kochia (kochia (Bassia scoparia) [10]; [20]) | Plant response rating, Kochia (kochia (Bassia scoparia) [10]; [21]) | Plant response rating, Pigweed, Redroot [11, 20] | Plant response rating, Pigweed, Redroot [11, 21] | Plant response rating, Ragweed [12, 20] | Plant response rating, Ragweed [12, 21] | also measured
COc1ccc2cc3ccc(F)cc3c(-c3c(OCOC(C)=O)c(C)nn(C)c3=O)c2c1 [Compound 26] | 10 | 70 | 20 | 90 | 20 | 90 | 100 | 100 | 10 | 90 | 40 | 10 | 10 | 70 | 40 | 80 | 100 | 100 | 90 | 100 | Plant response rating, Ragweed ([5]; 31 g ai/ha): 30; Plant response rating, Ragweed ([5]; 125 g ai/ha): 30; Plant response rating, Barnyardgrass [7, 20]: 20; Plant response rating, Blackgrass [8, 20]: 0; Plant response rating, Corn (corn (Zea mays); [20]): 0; Plant response rating, Foxtail, Giant [9, 20]: 20; Plant response rating, Ryegrass, Italian [13, 20]: 20; Plant response rating, Ryegrass, Italian [13, 21]: 90; Plant response rating, Wheat [14, 20]: 20; Plant response rating, Wheat [14, 21]: 60; Plant response rating, Galium [15, 20]: 80; Plant response rating, Galium [15, 21]: 100; Plant response rating, Barnyardgrass (0 to 100 scale where 0 is no effect and 100 is complete control) [16]: 60; Plant response rating, Ducksalad (0 to 100 scale where 0 is no effect and 100 is complete control) [17]: 80; Plant response rating, Rice (0 to 100 scale where 0 is no effect and 100 is complete control) (rice (Oryza sativa)): 10; Plant response rating, Sedge, Umbrella (0 to 100 scale where 0 is no effect and 100 is complete control) [18]: 85
CC(=O)OCOc1c(C)nn(C)c(=O)c1-c1c2cc(C)ccc2cc2c(F)cc(C)cc12 [Compound 29] | 0 | 70 | 0 | 20 | 20 | 100 | 100 | 100 | 0 | 60 | 90 | 20 | 0 | 20 | 60 | 100 | 100 | 100 | 100 | 100 | Plant response rating, Ragweed ([5]; 31 g ai/ha): 90; Plant response rating, Ragweed ([5]; 125 g ai/ha): 90; Plant response rating, Barnyardgrass [7, 20]: 20; Plant response rating, Blackgrass [8, 20]: 0; Plant response rating, Corn (corn (Zea mays); [20]): 0; Plant response rating, Foxtail, Giant [9, 20]: 20; Plant response rating, Ryegrass, Italian [13, 20]: 40; Plant response rating, Ryegrass, Italian [13, 21]: 60; Plant response rating, Wheat [14, 20]: 0; Plant response rating, Wheat [14, 21]: 0; Plant response rating, Galium [15, 20]: 90; Plant response rating, Galium [15, 21]: 100; Plant response rating, Barnyardgrass (0 to 100 scale where 0 is no effect and 100 is complete control) [16]: 55; Plant response rating, Ducksalad (0 to 100 scale where 0 is no effect and 100 is complete control) [17]: 95; Plant response rating, Rice (0 to 100 scale where 0 is no effect and 100 is complete control) (rice (Oryza sativa)): 0; Plant response rating, Sedge, Umbrella (0 to 100 scale where 0 is no effect and 100 is complete control) [18]: 98
CC(=O)OCOc1c(Cl)nn(C)c(=O)c1-c1c2cc(C)ccc2cc2ccc(C)cc12 [Compound 23] | 30 | 80 | 0 | 20 | 60 | 90 | 100 | 100 | 0 | 0 | 90 | 20 | 40 | 50 | 20 | 80 | 100 | 100 | 70 | 100 | Plant response rating, Ragweed ([5]; 31 g ai/ha): 40; Plant response rating, Ragweed ([5]; 125 g ai/ha): 90; Plant response rating, Barnyardgrass [7, 20]: 30; Plant response rating, Blackgrass [8, 20]: 40; Plant response rating, Corn (corn (Zea mays); [20]): 0; Plant response rating, Foxtail, Giant [9, 20]: 0; Plant response rating, Ryegrass, Italian [13, 20]: 0; Plant response rating, Ryegrass, Italian [13, 21]: 40; Plant response rating, Wheat [14, 20]: 0; Plant response rating, Wheat [14, 21]: 0; Plant response rating, Galium [15, 20]: 70; Plant response rating, Galium [15, 21]: 100; Plant response rating, Barnyardgrass (0 to 100 scale where 0 is no effect and 100 is complete control) [16]: 60; Plant response rating, Ducksalad (0 to 100 scale where 0 is no effect and 100 is complete control) [17]: 95; Plant response rating, Rice (0 to 100 scale where 0 is no effect and 100 is complete control) (rice (Oryza sativa)): 0; Plant response rating, Sedge, Umbrella (0 to 100 scale where 0 is no effect and 100 is complete control) [18]: 75
CC(=O)OCOc1c(C)nn(C)c(=O)c1-c1c2ccccc2cc2ccccc12 [Compound 13] | 0 | 30 | 0 | 20 | 0 | 0 | 100 | 100 | 30 | 70 | 40 | 40 | 0 | 60 | 10 | 50 | 100 | 100 | 90 | 100 | Plant response rating, Barnyardgrass [7, 22]: 10; Plant response rating, Blackgrass [8, 22]: 0; Plant response rating, Corn (corn (Zea mays); [22]): 0; Plant response rating, Foxtail, Giant [9, 22]: 10; Plant response rating, Ryegrass, Italian [13, 20]: 70; Plant response rating, Ryegrass, Italian [13, 21]: 100; Plant response rating, Wheat [14, 20]: 0; Plant response rating, Wheat [14, 21]: 0; Plant response rating, Galium [15, 20]: 100; Plant response rating, Galium [15, 21]: 100; Plant response rating, Barnyardgrass (0 to 100 scale where 0 is no effect and 100 is complete control) [16]: 0; Plant response rating, Ducksalad (0 to 100 scale where 0 is no effect and 100 is complete control) [17]: 0; Plant response rating, Rice (0 to 100 scale where 0 is no effect and 100 is complete control) (rice (Oryza sativa)): 0; Plant response rating, Sedge, Umbrella (0 to 100 scale where 0 is no effect and 100 is complete control) [18]: 0
